Assay results reported in article PMC6129397 (Xenobiotica; the fate of foreign compounds in biological …, 2017).
Where two headings read alike, the source gives them in different places.

Legend:
[1] = biological target: T1, glucocorticoid receptor (GR) (Homo sapiens, UniProt P04150); assay: Glucocorticoid receptor; type: cell-based
T1 sequence (P04150 1-777): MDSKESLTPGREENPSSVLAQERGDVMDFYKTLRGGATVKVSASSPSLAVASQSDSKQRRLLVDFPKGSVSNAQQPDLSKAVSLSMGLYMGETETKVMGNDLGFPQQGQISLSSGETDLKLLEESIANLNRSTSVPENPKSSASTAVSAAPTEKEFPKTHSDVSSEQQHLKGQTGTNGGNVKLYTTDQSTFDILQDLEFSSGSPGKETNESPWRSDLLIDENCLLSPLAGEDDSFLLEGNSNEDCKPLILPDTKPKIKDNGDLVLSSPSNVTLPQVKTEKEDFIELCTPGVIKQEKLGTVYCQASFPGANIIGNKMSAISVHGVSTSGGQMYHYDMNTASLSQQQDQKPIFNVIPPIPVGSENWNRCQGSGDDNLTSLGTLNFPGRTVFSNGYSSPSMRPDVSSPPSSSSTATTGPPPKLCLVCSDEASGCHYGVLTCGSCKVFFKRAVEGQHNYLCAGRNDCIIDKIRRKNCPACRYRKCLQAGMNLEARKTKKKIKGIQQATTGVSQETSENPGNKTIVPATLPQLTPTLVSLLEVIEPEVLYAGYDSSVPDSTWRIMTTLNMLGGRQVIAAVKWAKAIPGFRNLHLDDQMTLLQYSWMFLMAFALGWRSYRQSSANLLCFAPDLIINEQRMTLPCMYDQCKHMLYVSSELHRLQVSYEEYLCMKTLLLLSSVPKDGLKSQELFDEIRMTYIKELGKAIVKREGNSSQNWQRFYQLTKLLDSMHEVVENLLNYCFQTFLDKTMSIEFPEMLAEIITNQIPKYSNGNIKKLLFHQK

[2] = biological target: T2, progesterone receptor (PR) (Homo sapiens, UniProt P06401); assay: Progesterone receptor; type: cell-based
T2 sequence (P06401 1-933): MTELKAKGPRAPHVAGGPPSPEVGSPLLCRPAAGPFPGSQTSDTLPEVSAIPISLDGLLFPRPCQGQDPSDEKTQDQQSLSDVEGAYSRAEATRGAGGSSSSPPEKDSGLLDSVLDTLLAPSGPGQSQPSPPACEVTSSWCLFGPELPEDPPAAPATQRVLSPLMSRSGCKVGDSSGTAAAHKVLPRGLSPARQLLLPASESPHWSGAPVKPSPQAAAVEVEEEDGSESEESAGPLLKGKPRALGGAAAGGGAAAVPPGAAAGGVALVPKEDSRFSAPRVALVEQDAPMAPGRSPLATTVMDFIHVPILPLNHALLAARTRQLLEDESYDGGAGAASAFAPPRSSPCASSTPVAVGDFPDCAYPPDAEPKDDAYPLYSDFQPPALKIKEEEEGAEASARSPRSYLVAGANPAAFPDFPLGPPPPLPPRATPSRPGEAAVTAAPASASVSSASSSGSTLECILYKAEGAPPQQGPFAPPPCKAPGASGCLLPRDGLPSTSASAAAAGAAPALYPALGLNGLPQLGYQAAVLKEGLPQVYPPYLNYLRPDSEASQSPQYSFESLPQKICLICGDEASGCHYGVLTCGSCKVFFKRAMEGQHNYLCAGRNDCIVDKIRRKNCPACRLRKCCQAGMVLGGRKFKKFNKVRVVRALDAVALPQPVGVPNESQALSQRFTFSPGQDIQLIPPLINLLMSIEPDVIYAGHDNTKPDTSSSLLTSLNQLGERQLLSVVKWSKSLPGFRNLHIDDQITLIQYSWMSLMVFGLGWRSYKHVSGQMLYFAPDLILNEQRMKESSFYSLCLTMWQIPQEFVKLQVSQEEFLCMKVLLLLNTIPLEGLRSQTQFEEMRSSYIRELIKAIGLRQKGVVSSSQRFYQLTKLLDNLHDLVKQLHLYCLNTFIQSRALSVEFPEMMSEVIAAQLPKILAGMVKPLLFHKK

[3] = test system: human liver microsomes (HLM); assay: Oxidation-glucuronidation assay with HLMs; type: in vitro ADME
[4] = T47D cells, 8 h, 10 nM, versus ethanol

C[C@@H]1C[C@H]2[C@@H]3CCC4=CC(=O)C=C[C@]4(C)[C@@]3(F)[C@@H](O)C[C@]2(C)[C@@]1(O)C(=O)CO [Dexamethasone, dexamethasone]
average mRNA fold change GILZ ([1]; MDA-MB-231 cells, 4 h, 0.1 μM): 18.5 fold change | average mRNA fold change SGK1 ([1]; MDA-MB-231 cells, 4 h, 0.1 μM): 5.6 fold change

CC(=O)O[C@]1(C(C)=O)CC[C@H]2[C@@H]3C=C(C)C4=CC(=O)CC[C@]4(C)[C@H]3CC[C@@]21C [MA, Megestrol acetate]
pharmacologic activity on the PR ([2]; in words): significant pharmacologic activity | activity on the GR ([1]; in words): showed activity | glucuronide formation by HLM ([3]; UDPGA alone (data not shown)): does not form any glucuronides | glucuronide formation by HLM ([3]; co-incubation with both NADPH and UDPGA, 24 hrs): two glucuronides were detected

CCC(=O)[C@@]1(C)CC[C@H]2[C@@H]3CCC4=CC(=O)CCC4=C3CC[C@@]21C [Metabolite R5020]
average mRNA fold change E2F1 [2, 4]: 4.8 ± 0.4 fold change | average mRNA fold change FKBP5 [2, 4]: 9.5 ± 0.3 fold change | average mRNA fold change GREB1 [2, 4]: 2.2 ± 0.1 fold change

CC(=O)N1CCN(c2ccc(OCC3COC(Cn4ccnc4)(c4ccc(Cl)cc4Cl)O3)cc2)CC1 (centres unmarked) [ketoconazole]
inhibition of M1 (HLMs; 28 μM MA, ketoconazole 1 μM): 96.2% | inhibition of M2 (HLMs; 28 μM MA, ketoconazole 1 μM): 100% | inhibition of M1 (HLMs; 62 μM MA, ketoconazole 1 μM): 100% | inhibition of M2 (HLMs; 62 μM MA, ketoconazole 1 μM): 100%

CO[C@H]1C[C@H](O[C@H]2[C@H](C)[C@@H](O[C@@H]3O[C@H](C)C[C@H](N(C)C)[C@H]3OC(C)=O)[C@@H](C)C[C@@]3(CO3)C(=O)[C@H](C)[C@@H](OC(C)=O)[C@@H](C)[C@@H](C)OC(=O)[C@@H]2C)O[C@@H](C)[C@@H]1OC(C)=O [troleandomycin]
inhibition of M1 (HLMs; 28 μM MA, troleandomycin 50 μM): 93.2% | inhibition of M2 (HLMs; 28 μM MA, troleandomycin 50 μM): 100% | inhibition of M1 (HLMs; 62 μM MA, troleandomycin 50 μM): 94.4% | inhibition of M2 (HLMs; 62 μM MA, troleandomycin 50 μM): 100%
